Measured values from patent publication US20230085307A1, “PYRIDAZINONE COMPOUND AND HERBICIDE” (NISSAN CHEMICAL CORPORATION, priority 2019, published 2023).

Legend:
[1] = system: late watergrass; experiment: Test Example 1: herbicidal activity, application before weed generation under submerged conditions (Table 16, symbol A); type: in vivo, late watergrass (Echinochloa oryzicola)
Procedure, shortened: (§1)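 Submerged Wagner pots (alluvial soil, 4 cm water) sown with weed seeds and planted with 2.5-leaf rice seedlings; emulsifiable concentrate diluted in water applied to water surface on sowing day. Held in greenhouse at 25-30 °C; injury scored 0-5 by herbicidal rate after three weeks.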

[2] = system: Japanese bulrush; experiment: Test Example 1: herbicidal activity, application before weed generation under submerged conditions (Table 16, symbol B); type: in vivo, Japanese bulrush (Schoenoplectus juncoides)
Procedure, shortened: as §1

[3] = system: oval-leafed pondweed; experiment: Test Example 1: herbicidal activity, application before weed generation under submerged conditions (Table 16, symbol C); type: in vivo, oval-leafed pondweed (Monochoria vaginalis)
Procedure, shortened: as §1

[4] = system: barnyard grass; experiment: Test Example 3: herbicidal effect by foliage application, Wagner pot (Table 18, symbol H); type: in vivo, barnyard grass (Echinochloa crus-galli)
Procedure, shortened: (§2)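 Plants were sown in alluvial soil held under 0.1–0.5 cm standing water and grown 14 days in a greenhouse at 25–30 °C. An emulsifiable formulation, water-diluted to the set dose, was then sprayed onto the foliage, and effects were scored three weeks later using previously defined criteria.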

[5] = system: Chinese sprangletop; experiment: Test Example 3: herbicidal effect by foliage application, Wagner pot (Table 18, symbol D); type: in vivo, chinese sprangletop (Leptochloa chinensis)
Procedure, shortened: as §2

[6] = system: rice flat sedge; experiment: Test Example 3: herbicidal effect by foliage application, Wagner pot (Table 18, symbol E); type: in vivo, rice flat sedge (Cyperus iria)
Procedure, shortened: as §2

[7] = system: southern crabgrass; experiment: Test Example 4: herbicidal effect by soil treatment (Table 19, symbol F); type: in vivo, southern crabgrass (Digitaria ciliaris)
Procedure, shortened: (§3)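 Step 1: sow seeds in sterilized diluvial soil, cover ~1.5 cm. Step 2: spray diluted emulsion onto soil surface at predetermined rate. Step 3: greenhouse, 25–30° C, three weeks. Step 4: grade effect on each plant by earlier criteria.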

[8] = system: green foxtail; experiment: Test Example 4: herbicidal effect by soil treatment (Table 19, symbol G); type: in vivo, green foxtail (Setaria viridis)
Procedure, shortened: as §3

[9] = system: barnyard grass; experiment: Test Example 4: herbicidal effect by soil treatment (Table 19, symbol H); type: in vivo, barnyard grass (Echinochloa crus-galli)
Procedure, shortened: as §3

[10] = system: wild oat; experiment: Test Example 4: herbicidal effect by soil treatment (Table 19, symbol I); type: in vivo, wild oat (Avena fatua)
Procedure, shortened: as §3

[11] = system: blackgrass; experiment: Test Example 4: herbicidal effect by soil treatment (Table 19, symbol J); type: in vivo, blackgrass (Alopecurus myosuroides)
Procedure, shortened: as §3

[12] = system: Italian ryegrass; experiment: Test Example 4: herbicidal effect by soil treatment (Table 19, symbol K); type: in vivo, Italian ryegrass (Lolium multiflorum)
Procedure, shortened: as §3

[13] = system: windgrass; experiment: Test Example 4: herbicidal effect by soil treatment (Table 19, symbol L); type: in vivo, windgrass (Apera spica-venti)
Procedure, shortened: as §3

[14] = system: velvetleaf; experiment: Test Example 4: herbicidal effect by soil treatment (Table 19, symbol M); type: in vivo, velvetleaf (Abutilon theophrasti)
Procedure, shortened: as §3

[15] = system: redroot pigweed; experiment: Test Example 4: herbicidal effect by soil treatment (Table 19, symbol N); type: in vivo, redroot pigweed (Amaranthus retroflexus)
Procedure, shortened: as §3

[16] = system: lambsquarters; experiment: Test Example 4: herbicidal effect by soil treatment (Table 19, symbol O); type: in vivo, lambsquarters (Chenopodium album)
Procedure, shortened: as §3

[17] = system: chickweed; experiment: Test Example 4: herbicidal effect by soil treatment (Table 19, symbol P); type: in vivo, common chickweed (Stellaria media)
Procedure, shortened: as §3

[18] = system: persian speedwell; experiment: Test Example 4: herbicidal effect by soil treatment (Table 19, symbol R); type: in vivo, Persian speedwell (Veronica persica)
Procedure, shortened: as §3

[19] = system: southern crabgrass; experiment: Test Example 5: herbicidal effect by foliage application, plastic box (Table 20, symbol F); type: in vivo, southern crabgrass (Digitaria ciliaris); settings: foliage application
Procedure, shortened: (§4)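 Foliar spray test: emulsion formulation diluted in water to a set application rate, sprayed onto 14-day-old plants raised in diluvial soil at 25° C to 30° C under glass. Both herbicidal effect and crop effect rated visually three weeks later.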

[20] = system: green foxtail; experiment: Test Example 5: herbicidal effect by foliage application, plastic box (Table 20, symbol G); type: in vivo, green foxtail (Setaria viridis); settings: foliage application
Procedure, shortened: as §4

[21] = system: barnyard grass; experiment: Test Example 5: herbicidal effect by foliage application, plastic box (Table 20, symbol H); type: in vivo, barnyard grass (Echinochloa crus-galli); settings: foliage application
Procedure, shortened: as §4

[22] = system: wild oat; experiment: Test Example 5: herbicidal effect by foliage application, plastic box (Table 20, symbol I); type: in vivo, wild oat (Avena fatua); settings: foliage application
Procedure, shortened: as §4

[23] = system: blackgrass; experiment: Test Example 5: herbicidal effect by foliage application, plastic box (Table 20, symbol J); type: in vivo, blackgrass (Alopecurus myosuroides); settings: foliage application
Procedure, shortened: as §4

[24] = system: Italian ryegrass; experiment: Test Example 5: herbicidal effect by foliage application, plastic box (Table 20, symbol K); type: in vivo, Italian ryegrass (Lolium multiflorum); settings: foliage application
Procedure, shortened: as §4

[25] = system: windgrass; experiment: Test Example 5: herbicidal effect by foliage application, plastic box (Table 20, symbol L); type: in vivo, windgrass (Apera spica-venti); settings: foliage application
Procedure, shortened: as §4

[26] = system: velvetleaf; experiment: Test Example 5: herbicidal effect by foliage application, plastic box (Table 20, symbol M); type: in vivo, velvetleaf (Abutilon theophrasti); settings: foliage application
Procedure, shortened: as §4

[27] = system: redroot pigweed; experiment: Test Example 5: herbicidal effect by foliage application, plastic box (Table 20, symbol N); type: in vivo, redroot pigweed (Amaranthus retroflexus); settings: foliage application
Procedure, shortened: as §4

[28] = system: lambsquarters; experiment: Test Example 5: herbicidal effect by foliage application, plastic box (Table 20, symbol O); type: in vivo, lambsquarters (Chenopodium album); settings: foliage application
Procedure, shortened: as §4

[29] = system: chickweed; experiment: Test Example 5: herbicidal effect by foliage application, plastic box (Table 20, symbol P); type: in vivo, common chickweed (Stellaria media); settings: foliage application
Procedure, shortened: as §4

[30] = system: persian speedwell; experiment: Test Example 5: herbicidal effect by foliage application, plastic box (Table 20, symbol R); type: in vivo, Persian speedwell (Veronica persica); settings: foliage application
Procedure, shortened: as §4

[31] = AAH 246 g/ha, three weeks after application
[32] = 269 g/ha, evaluated three weeks after application

C=Cc1ccc(-c2sc3ccccc3c2-c2c(OC(=O)CCC)c(C)nn(C)c2=O)cc1 [1-128]
Herbicidal effect on A: late watergrass (grade 0-5) ([1]; 246 g/ha applied herbicide): 0 (Herbicidal rate of 5% or less (almost no effect)) | Herbicidal effect on B: Japanese bulrush (grade 0-5) ([2]; 246 g/ha applied herbicide): 5 (Herbicidal rate of 90% or more (almost completely withered)) | Herbicidal effect on C: oval-leafed pondweed (grade 0-5) ([3]; 246 g/ha applied herbicide): 5 (Herbicidal rate of 90% or more (almost completely withered)) | herbicidal effect on H (barnyard grass), rating 0-5 ([4]; 246 g/ha): 4 (Herbicidal rate of 70% or more and less than 90%) | herbicidal effect on D (Chinese sprangletop), rating 0-5 ([5]; 246 g/ha): 5 (Herbicidal rate of 90% or more (almost completely withered)) | herbicidal effect on E (rice flat sedge), rating 0-5 ([6]; 246 g/ha): 3 (Herbicidal rate of 40% or more and less than 70%) | F: southern crabgrass, herbicidal effect rating ([7]; AAH 246 g/ha): 0 (Herbicidal rate of 5% or less (almost no effect)) | G: green foxtail, herbicidal effect rating ([8]; AAH 246 g/ha): 0 (Herbicidal rate of 5% or less (almost no effect)) | H: barnyard grass, herbicidal effect rating ([9]; AAH 246 g/ha): 0 (Herbicidal rate of 5% or less (almost no effect)) | I: wild oat, herbicidal effect rating ([10]; AAH 246 g/ha): 0 (Herbicidal rate of 5% or less (almost no effect)) | J: blackgrass, herbicidal effect rating ([11]; AAH 246 g/ha): 0 (Herbicidal rate of 5% or less (almost no effect)) | K: Italian ryegrass, herbicidal effect rating ([12]; AAH 246 g/ha): 2 (Herbicidal rate of 20% or more and less than 40%) | L: windgrass, herbicidal effect rating ([13]; AAH 246 g/ha): 0 (Herbicidal rate of 5% or less (almost no effect)) | M: velvetleaf, herbicidal effect rating ([14]; AAH 246 g/ha): 0 (Herbicidal rate of 5% or less (almost no effect)) | N: redroot pigweed, herbicidal effect rating ([15]; AAH 246 g/ha): 4 (Herbicidal rate of 70% or more and less than 90%) | O: lambsquarters, herbicidal effect rating ([16]; AAH 246 g/ha): 0 (Herbicidal rate of 5% or less (almost no effect)) | P: chickweed, herbicidal effect rating ([17]; AAH 246 g/ha): 3 (Herbicidal rate of 40% or more and less than 70%) | R: persian speedwell, herbicidal effect rating ([18]; AAH 246 g/ha): 3 (Herbicidal rate of 40% or more and less than 70%) | F: southern crabgrass, herbicidal effect [19, 31]: 0 (Herbicidal rate of 5% or less (almost no effect)) | G: green foxtail, herbicidal effect [20, 31]: 0 (Herbicidal rate of 5% or less (almost no effect)) | H: barnyard grass, herbicidal effect [21, 31]: 1 (Herbicidal rate of 5% or more and less than 20%) | I: wild oat, herbicidal effect [22, 31]: 1 (Herbicidal rate of 5% or more and less than 20%) | J: blackgrass, herbicidal effect [23, 31]: 3 (Herbicidal rate of 40% or more and less than 70%) | K: Italian ryegrass, herbicidal effect [24, 31]: 4 (Herbicidal rate of 70% or more and less than 90%) | L: windgrass, herbicidal effect [25, 31]: 4 (Herbicidal rate of 70% or more and less than 90%) | M: velvetleaf, herbicidal effect [26, 31]: 4 (Herbicidal rate of 70% or more and less than 90%) | N: redroot pigweed, herbicidal effect [27, 31]: 5 (Herbicidal rate of 90% or more (almost completely withered)) | O: lambsquarters, herbicidal effect [28, 31]: 4 (Herbicidal rate of 70% or more and less than 90%) | P: chickweed, herbicidal effect [29, 31]: 5 (Herbicidal rate of 90% or more (almost completely withered)) | R: persian speedwell, herbicidal effect [30, 31]: 5 (Herbicidal rate of 90% or more (almost completely withered))

COCCOCOc1c(C)nn(C)c(=O)c1-c1c(-c2ccc(OCCSC)cc2)sc2ccc(F)cc12 [2-059]
Herbicidal effect on A: late watergrass (grade 0-5) ([1]; 269 g/ha applied herbicide): 3 (Herbicidal rate of 40% or more and less than 70%) | Herbicidal effect on B: Japanese bulrush (grade 0-5) ([2]; 269 g/ha applied herbicide): 3 (Herbicidal rate of 40% or more and less than 70%) | Herbicidal effect on C: oval-leafed pondweed (grade 0-5) ([3]; 269 g/ha applied herbicide): 4 (Herbicidal rate of 70% or more and less than 90%) | herbicidal effect on H (barnyard grass), rating 0-5 ([4]; 269 g/ha): 5 (Herbicidal rate of 90% or more (almost completely withered)) | herbicidal effect on D (Chinese sprangletop), rating 0-5 ([5]; 269 g/ha): 5 (Herbicidal rate of 90% or more (almost completely withered)) | herbicidal effect on E (rice flat sedge), rating 0-5 ([6]; 269 g/ha): 5 (Herbicidal rate of 90% or more (almost completely withered)) | herbicidal effect rating, F: southern crabgrass ([7]; 269 g/ha): 4 (Herbicidal rate of 70% or more and less than 90%) | herbicidal effect rating, G: green foxtail ([8]; 269 g/ha): 5 (Herbicidal rate of 90% or more (almost completely withered)) | herbicidal effect rating, H: barnyard grass ([9]; 269 g/ha): 1 (Herbicidal rate of 5% or more and less than 20%) | herbicidal effect rating, I: wild oat ([10]; 269 g/ha): 0 (Herbicidal rate of 5% or less (almost no effect)) | herbicidal effect rating, J: blackgrass ([11]; 269 g/ha): 0 (Herbicidal rate of 5% or less (almost no effect)) | herbicidal effect rating, K: Italian ryegrass ([12]; 269 g/ha): 4 (Herbicidal rate of 70% or more and less than 90%) | herbicidal effect rating, L: windgrass ([13]; 269 g/ha): 4 (Herbicidal rate of 70% or more and less than 90%) | herbicidal effect rating, M: velvetleaf ([14]; 269 g/ha): 1 (Herbicidal rate of 5% or more and less than 20%) | herbicidal effect rating, N: redroot pigweed ([15]; 269 g/ha): 5 (Herbicidal rate of 90% or more (almost completely withered)) | herbicidal effect rating, O: lambsquarters ([16]; 269 g/ha): 5 (Herbicidal rate of 90% or more (almost completely withered)) | herbicidal effect rating, P: chickweed ([17]; 269 g/ha): 4 (Herbicidal rate of 70% or more and less than 90%) | herbicidal effect rating, R: persian speedwell ([18]; 269 g/ha): 5 (Herbicidal rate of 90% or more (almost completely withered)) | herbicidal effect on F: southern crabgrass [19, 32]: 5 (Herbicidal rate of 90% or more (almost completely withered)) | herbicidal effect on G: green foxtail [20, 32]: 5 (Herbicidal rate of 90% or more (almost completely withered)) | herbicidal effect on H: barnyard grass [21, 32]: 5 (Herbicidal rate of 90% or more (almost completely withered)) | herbicidal effect on I: wild oat [22, 32]: 4 (Herbicidal rate of 70% or more and less than 90%) | herbicidal effect on J: blackgrass [23, 32]: 5 (Herbicidal rate of 90% or more (almost completely withered)) | herbicidal effect on K: Italian ryegrass [24, 32]: 5 (Herbicidal rate of 90% or more (almost completely withered)) | herbicidal effect on L: windgrass [25, 32]: 5 (Herbicidal rate of 90% or more (almost completely withered)) | herbicidal effect on M: velvetleaf [26, 32]: 5 (Herbicidal rate of 90% or more (almost completely withered)) | herbicidal effect on N: redroot pigweed [27, 32]: 5 (Herbicidal rate of 90% or more (almost completely withered)) | herbicidal effect on O: lambsquarters [28, 32]: 5 (Herbicidal rate of 90% or more (almost completely withered)) | herbicidal effect on P: chickweed [29, 32]: 5 (Herbicidal rate of 90% or more (almost completely withered)) | herbicidal effect on R: persian speedwell [30, 32]: 5 (Herbicidal rate of 90% or more (almost completely withered))
